Literature values as cited in patent US10987332B2, “Sprayable aqueous composition comprising glyceryl trinitrate” (G. POHL-BOSKAMP GMBH & CO. KG, priority 2013, dated 2021).

Legend:
Sprague-Dawley rats [1] = conditions: rat, in vivo
Sprague-Dawley rats [2] = conditions: RIP (Modules 2-4)

SMILES | Infarct size (Sprague-Dawley rats [1]) [%] | VPB-Score (Sprague-Dawley rats [2]) | solubility in water
O=[N+]([O-])O[C@H]1CO[C@H]2[C@@H]1OC[C@H]2O[N+](=O)[O-] [ISDN, isosorbide dinitrate] | 7.59±4.38 | 4.57 | 
O=[N+]([O-])OCC(CO[N+](=O)[O-])O[N+](=O)[O-] [NTG, nitroglycerin] |  |  | about 1 mg/ml
